Measured values reported in patent EP2433636A1, “Treatment of Malignant Diseases” (Medizinische Universität Wien, priority 2010, dated 2012).
Entries after “also recorded” stand apart in the source; their conditions may differ.

Key:
Rac 1, 2, 3 = Rac 1, 2, 3 activation assay (G-LISA) after EGF stimulation; assay type: cell-based, Human
Description: Prostate cancer cells were seeded in 6-well plates and starved for 20 h. Cells were incubated with Rac1 small molecule inhibitor AZA1 for 4 h and then stimulated with 50 ng/ml epidermal growth factor (EGF) (R&D systems) for 1 min 30 sec and Rac activation was then measured with the G-LISA method (Rac 1, 2, 3 activation assay, colorimetric format, Cytoskeleton) according to the manufacturer's protocol.

[1] = test system: CRL-2505 prostate cancer xenograft; experiment: Human prostate cancer xenograft tumour model; assay type: in vivo, athymic nu/nu (nude) mice
Description: The experiments performed in this study were approved by the Institutional Animal Care and Use Committee at the Vienna Medical University. Pathogen-free, male, 5 week-old athymic nu/nu (nude) mice (Charles River, Sulzfeld, Germany) were weighed, coded and divided into experimental groups of (n = 10) at random. Mice were anesthetized (ketamine hydrochloride/xylazine at 55/7.5 mg/kg i.p.) and 15x10^6 CRL-2505 cells/100 µl PBS were injected s.c. into the left flank (Aharinejad et al., 2004). In a preliminary experiment mice received i.p. injections with 100 µg compound AZA1, AZA2, AZA3, or AZA4 in 100 µl 30% DMSO six days after cell injection for two weeks, control animals received 100 µl 30% DMSO/day (n = 5 for each group). […] Tumour volumes were calculated as length x width^2/2. […]
On day 24, tumors were isolated, weighed and the animals were sacrificed. […] Primary antibodies were detected by sequential incubation with appropriate biotinylated secondary antibodies (Vector Laboratories, Burlingame, CA) and peroxidase conjugated streptavidin (Dako), developed with 3, 3'-diaminobenzidine (Vector Laboratories), counter-stained with haemalaun, dehydrated and mounted in DPX (Merck, Darmstadt, Germany) and digitalized images were generated.

[2] = test system: CRL-2505 prostate cancer cells; experiment: WST-1 cell proliferation assay; assay type: cell-based, Human; details: 72 hours of incubation with 1, 2, 5, 10 and 25 µM, compared to untreated cells
Description: Human CRL-2505 cells were seeded in 96-well plates at a density of 1x10^4 cells/well in culture medium. Cells were incubated with 1, 2, 5, 10, 25 µM compound AZA1. Cell proliferation was determined 24, 48 or 72 h after treatment using the WST-1 reagent (Roche Diagnostics, Indianapolis, IN) according to the manufacturer's protocol (Zins et al., Cancer Res. 67 (2007), 1038-1045). Each experiment was repeated three times.

Cyclin D1 = Cyclin D1 expression by flow cytometry; assay type: cell-based; details: Homo sapiens, 4 h; compared to untreated controls; read-out: Cyclin D1 fluorescence intensity, decrease
Description: (§1) Tumour cells were seeded in 10 cm plates and allowed to adhere before treatment with 20 µM compound AZA1 for 4 h before trypsinization and washing with PBS.
(§2) One portion of the cells were then fixed with 70% ethanol for 1h at 4°C, washed with PBS and stained with propidium iodide (PI) puffer with 50 µg/ml DNase-free RNaseA. Cells in different cell cycle stages were determined. The rest of the cells were fixed with Cytofix fixation buffer (BD) for 30 min at 37°C, washed and then permeabilized with Perm buffer III (BD) and stained with Cyclin D1 (anti-human Cyclin D1 antibody set), phospho-Akt (anti-phospho-Akt pT308), phospho-ERK (anti-phospho-ERK1/2 pT202/pY204), phospho-JNK (anti-phospho-JNK pT183/pY185) and phospho-p38 antibodies (anti-phospho-p38 MAPK pT180/pY182) (the latter antibodies were purchased from BD Biosciences). […] were analyzed on a FACScan flow cytometer (BD Biosciences) with an argon laser tuned to 488 nm.

[3] = test system: phospho-Pak1 (pS144)/Pak2 (pS141); experiment: Western blot, phospho-Pak1/2; assay type: cell-based, Human; details: 2 µM for 24h, compared to controls
Description: (§3) Cell lysates were prepared (Aharinejad et al., Cancer Res. 62 (2002), 5317-5324 and Cancer Res. 64 (2004), 5378-5384) and 50 µg/lane separated by 9% SDS-PAGE prior to electrophoretic transfer onto Hybond C super (Amersham Pharmacia Biotech, Buckinghamshire, UK). The blots were probed with antibodies against PAK1 and phospho-Pak1 (pS144)/Pak2 (pS141) (Cell Signaling Technology, Danvers, MA) before incubation with horseradish peroxidase-conjugated secondary antibodies (Amersham Pharmacia Biotech). Proteins were immunodetected by chemiluminescence (Supersignal-West- Femto, Pierce, Rockford, IL) and quantified by Image Quant 5.0 software (Molecular Dynamics, Sunnyvale, CA).

phospho-p38 = experiment: Phospho-p38 by flow cytometry; assay type: cell-based, Human; details: compared to untreated cells
Description: as §1, §2

CRL-2505 cells [4] = experiment: Apoptosis by flow cytometry (Annexin V-FITC and PI); assay type: cell-based, Human; details: 3 h after treatment
Description: Then the effect of Rac1 inhibition on the cell cycle regulatory protein Cyclin D1 was examined. […] Next, flow cytometry was used to assess apoptosis in response to Rac1 inhibition.

Prostate cancer cells = experiment: In vitro migration assay (Boyden chamber); assay type: cell-based, Human; details: compared to untreated controls
Description: Prostate cancer cells (5x10^4 in 1 ml DMEM with 10% FCS) were added to the top of each Boyden migration chamber (8-µm, 12-well plate format; BD Biosciences, Palo Alto, CA). Cells were incubated with 1, 2, and 5 µM of compound AZA1. […] Cells from the upper side of the membrane were removed with cotton swabs. The membranes were excised using a scalpel, inverted and transferred to a PBS filled tissue culture well. Membranes were then fixed in methanol for 2 min at -20°C. After washing in PBS, membranes were stained with 1 µg/ml 4'-6-Diamidino-2-phenylindole (DAPI) in PBS for 10 min at RT and washed again in PBS. Membranes were then embedded in Cityfluor (Cityfluor, Leicester, UK) on glass slides under coverslips. Representative sectors of migrated prostate cancer cells were counted under a fluorescence microscope. Each experiment was performed in triplicate.

Pak1 = experiment: Western blot, Pak1 total protein; assay type: cell-based, Human; details: 2 µM for 24h, compared to controls
Description: as §3

CRL-2505 cells [5] = experiment: Cell cycle distribution by flow cytometry (propidium iodide); assay type: cell-based, Human; details: 24 h; for sub G1 events (M1): untreated 1.47%
Description: as §2

[6] = test system: CRL-2505 prostate cancer xenograft; experiment: Survival study in prostate cancer xenograft bearing mice; assay type: in vivo, athymic nu/nu (nude) mice
Description: The experiments performed in this study were approved by the Institutional Animal Care and Use Committee at the Vienna Medical University. Pathogen-free, male, 5 week-old athymic nu/nu (nude) mice (Charles River, Sulzfeld, Germany) were weighed, coded and divided into experimental groups of (n = 10) at random. Mice were anesthetized (ketamine hydrochloride/xylazine at 55/7.5 mg/kg i.p.) and 15x10^6 CRL-2505 cells/100 µl PBS were injected s.c. into the left flank (Aharinejad et al., 2004). In a preliminary experiment mice received i.p. injections with 100 µg compound AZA1, AZA2, AZA3, or AZA4 in 100 µl 30% DMSO six days after cell injection for two weeks, control animals received 100 µl 30% DMSO/day (n = 5 for each group). In the main experiment, mice received i.p. injections with 100 µg compound AZA1 in 100 µl 30% DMSO six days after cell injection for two weeks, control animals received 100 µl 30% DMSO/day (n = 10 for each group). Tumour volumes were calculated as length x width^2/2. All animals were sacrificed on day 20.
The survival study was set for three months. Mice were treated with compound AZA1 (n = 10) or 30% DMSO (n = 10) and were euthanized when moribund.
Data were tested for normality using the Shapiro-Wilk test. Groups were compared by nonparametric analysis of variance (ANO-VA, Wilcoxon rank-sum test, Kruskal-Wallis test). All statistical tests were two-sided. The overall survival curves after treatment were analyzed by the Kaplan-Meier survival test. Statistical tests were performed with the use of SAS software (version 9.1.3) and Enterprise Guide (version 4.1, SAS Institute Inc., Cary, NC). Data are expressed as means ± SD. P values of < 0.05 were considered to indicate statistical significance.

phospho-ERK = experiment: Phospho-ERK by flow cytometry; assay type: cell-based, Human; details: compared to untreated cells
Description: as §1, §2

[7] = Solubility test in 20-30% DMSO in water; assay type: physicochemical; details: appropriate if 1mM of the compound is soluble in 20-30% DMSO in water; 100 mM stock in 100% DMSO
Description: Compounds in powder form were dissolved in 100% DMSO to obtain 100 mM stock solutions of each of the compounds. Solubility of the compounds was then tested by preparing solutions in 20-30% DMSO in water. […] Compounds which were non-soluble in 30% DMSO were regarded as non-soluble. NSC23766 was always used as a reference compound.

phospho-JNK = experiment: Phospho-JNK by flow cytometry; assay type: cell-based, Human; details: compared to untreated cells
Description: as §1, §2

phospho-Akt = experiment: Phospho-Akt by flow cytometry; assay type: cell-based, Human
Description: as §2

PC-3 = details: Rac-hyperactive prostate cancer cells PC-3; cited from earlier work
[8] = test system: chronic myelogenous leukemia (CML); details: in vitro and in vivo; cited from earlier work

Cc1cc2cc(Nc3ccnc(Nc4ccc5[nH]c(C)cc5c4)n3)ccc2[nH]1 [AZA1, N*2*,N*4*-Bis-(2-methyl-1H-indol-5-yl)-pyrimidine-2,4-diamine]
Rac activity (Rac 1, 2, 3; CRL-2505 cells, 5, 10 and 20 µM, 4 h incubation, then 50 ng/ml EGF): reduced Rac activity significantly
Rac inhibiting activity, compared with the other screened compounds or NSC23766 (Rac 1, 2, 3; screening of the newly designed compounds, CRL-2505 cells after EGF treatment): improved Rac inhibiting activity when compared to NSC 23766; also recorded: most effective Rac inhibitor
ranking of AZA1 to AZA4 in the in vivo experiments (solubility, lack of toxicity, tumor-suppressive effects) ([1]; preliminary experiment, 100 µg i.p. in 30% DMSO, n = 5 per group): most potent agent
cell proliferation, staining with Ki-67 antibody ([1]; tumour tissue sections, day 24): reduced
CRL-2505 cell proliferation [2]: significantly reduced
inhibition at 20 µM (Cyclin D1): 22%
Pak1/2 phosphorylation at serine 144/141 [3]: significantly reduced
phosphorylation of p38 (phospho-p38): significant decrease
apoptosis (staining with Annexin V-FITC and PI) (CRL-2505 cells [4]): no significant signs of apoptosis
cancer cell migration (Prostate cancer cells; 1 µM): failed to reduce cancer cell migration
cancer cell migration (Prostate cancer cells; 2 µM, 20 h): significantly reduced migration
cancer cell migration (Prostate cancer cells; 5 µM, 20 h): significantly reduced migration
Pak1 expression (Pak1): not changed
sub G1 events (M1) (CRL-2505 cells [5]; 1 µM): 8.08%
sub G1 events (M1) (CRL-2505 cells [5]; 2 µM): 9.26%
G2/M (M4) phases (CRL-2505 cells [5]; 2 µM, untreated 32.25%): 28.44%
median time to death ([6]; after tumour cell grafting, control 39 ± 15 days): 46 ± 4 days
animals still alive ([6]; day 42, when the last control animal died): 60%
survival ([6]; vs. control mice, Kaplan-Meier): significantly increased
activity of ERK (phospho-ERK) (phospho-ERK): not affected
solubility [7]: appropriate solubility
phosphorylation of JNK (phospho-JNK): significant decrease
pAkt at different time points (phospho-Akt; 5 min to 90 min after treatment): decreased significantly
inhibition at 20 µM (phospho-Akt; Homo sapiens, 1 h, 20 µM for 60 min (Fig. 4A), compared to untreated cells, read-out: phospho-Akt levels, reduction): 24%

CCN(CC)CCCC(C)Nc1ncc(C)c(Nc2ccc3[nH]c(C)cc3c2)n1 (stereo not shown) [Compound 10, N*2*-(4-Diethylamino-1-methyl-butyl)-5-methyl-N*4*-(2-methyl-1H-indol-5-yl)-pyrimidine-2,4-diamine]
solubility [7]: appropriate solubility

c1cc(Nc2ccc3[nH]ccc3c2)nc(Nc2ccc3[nH]ccc3c2)n1 [Compound 41, N*2*,N*4*-Bis-(1H-indol-5-yl)-pyrimidine-2,4-diamine]
solubility [7]: appropriate solubility

c1cc(NCc2ccc3[nH]ccc3c2)nc(Nc2ccc3cc[nH]c3c2)n1 [Compound 55, N*2*-(1H-Indol-6-yl)-N*4*-(1H-indol-5-ylmethyl)-pyrimidine-2,4-diamine]
solubility [7]: appropriate solubility

CCN(CC)CCCC(C)Nc1nc(C)cc(Nc2ccc3nc(C)cc(N)c3c2)n1 (stereo not shown) [NSC23766, N6-(2-((4-(diethylamino)-1-methylbutyl)amino)-6-methyl-4-pyrimidinyl)-2-methyl-4,6-quinolinediamine]
anchorage independent growth (PC-3): able to inhibit
invasion (PC-3): able to inhibit
proliferation (PC-3): able to inhibit
proliferation of chronic myelogenous leukemia (CML) [8]: inhibited proliferation
